{"source": "patent US9415049B2", "about": "“Heteroaryl compounds and uses thereof” (Celgene Avilomics Research, Inc., priority 2013, dated 2016)", "key": {"[1]": {"target": "T1, human recombinant full-length Btk enzyme (Homo sapiens, UniProt Q06187)", "T1 sequence (Q06187 whole entry)": "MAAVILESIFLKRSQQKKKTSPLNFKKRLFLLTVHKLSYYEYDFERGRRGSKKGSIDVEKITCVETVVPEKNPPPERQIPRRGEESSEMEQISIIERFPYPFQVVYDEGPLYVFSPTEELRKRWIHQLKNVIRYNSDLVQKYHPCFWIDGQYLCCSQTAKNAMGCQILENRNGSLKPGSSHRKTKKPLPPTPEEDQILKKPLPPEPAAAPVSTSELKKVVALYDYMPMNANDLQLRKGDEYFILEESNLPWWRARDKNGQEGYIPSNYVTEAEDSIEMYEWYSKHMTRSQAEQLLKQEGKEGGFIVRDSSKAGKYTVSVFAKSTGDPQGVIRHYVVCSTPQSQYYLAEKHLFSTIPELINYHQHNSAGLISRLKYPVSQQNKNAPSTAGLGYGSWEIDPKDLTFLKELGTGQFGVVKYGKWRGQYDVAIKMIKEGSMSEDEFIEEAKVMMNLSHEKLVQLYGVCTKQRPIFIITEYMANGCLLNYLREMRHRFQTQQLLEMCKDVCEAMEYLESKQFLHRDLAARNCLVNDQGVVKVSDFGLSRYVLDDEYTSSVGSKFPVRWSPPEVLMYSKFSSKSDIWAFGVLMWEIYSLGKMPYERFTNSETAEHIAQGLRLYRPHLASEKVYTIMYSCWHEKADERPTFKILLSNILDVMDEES", "test": "Omnia Continuous Read Kinase Assay, Btk inhibition", "type": "biochemical", "design": "human recombinant full-length Btk enzyme", "settings": "30 minutes pre-incubation at 27° C.; 0.5 nM to 10 μM", "source_text": "The following Example describes testing certain compounds according to the invention for inhibition of BTK activity. The Omnia® Continuous Read Kinase Assay uses an unnatural amino acid chelation enhanced fluorophore (Sox; 8-hydroxy-5-(N,N-dimethylsulfonamido)-2 methylquinoline) incorporated into a kinase-specific peptide substrate to characterize Btk enzyme kinetics and inhibition. Following Btk-mediated phosphorylation, a sensitive, highly quantifiable increase in real-time fluorescence is noted based upon the ability of chelated Mg2+ to form a bridge between Sox and the phosphate group on a tyrosine residue of the peptide substrate. The Omnia® continuous read assay was performed essentially as described by the vendor (Invitrogen; Carlsbad, Calif.). First, a 10× stock of human recombinant full-length Btk enzyme was prepared in Kinase Reaction Buffer. 5 μL of the 10× enzyme was pre-incubated with 0.5 μL of serially diluted compound prepared in 50% DMSO, in a 384-well microtiter plate for 30 minutes at 27° C. 1.13×ATP and the Tyr5-Sox conjugated peptide substrate were prepared in 1× Kinase Reaction Buffer. Kinase reactions were initiated by the addition of 45 μL of the 1.13×ATP-Sox peptide substrate master mix and monitored every 30 to 90 seconds for 60 minutes at λex360/λem485 in a Synergy plate reader. The IC50 values for each compound assayed were determined from test concentrations of 0.5 nM to 10 μM in half-log intervals performed in duplicate.\nAt the conclusion of each assay, progress curves from each well were examined for linear reaction kinetics and fit statistics (R2, 95% confidence interval, absolute sum of squares) using GraphPad software (GraphPad Prism version 5.01; San Diego, Calif.). Initial velocity (0 minutes to ˜30+ minutes) from each reaction was determined from the slope of a plot of relative fluorescence units versus time (minutes). Using control normalized % inhibition data, plots were constructed against inhibitor concentration to estimate IC50 from log [inhibitor] versus response using a variable slope model in GraphPad. The compound numbers correspond to the compound numbers in Table 1."}, "[2]": {"target": "T1, human recombinant full-length Btk enzyme", "test": "Covalent bonding assay, intact protein MALDI mass spectrometry", "type": "binding", "design": "The full-length recombinant human Btk protein; purchased Invitrogen Lot #619547Q (catalogue number not given)", "settings": "percentage of total protein covalently modified after one hour incubation, 10-fold excess of compound, room temperature", "description": "The following example describes testing certain compounds to determine whether they covalently bind to BTK. The full-length recombinant human Btk protein (Lot #619547Q; 0.35 mg/mL) was obtained from Invitrogen (Carlsbad, Calif.). Btk protein was diluted 2:3 in phosphate-buffered saline and stock concentration (10 mM) of compound was diluted 1:115 in 50% DMSO.\nFor all compounds, 1 μL of diluted compound was added to 5 μL of diluted protein. These mixtures were then incubated for 60 minutes at a 10-fold excess of compound to protein under room temperature (˜24° C.) conditions.\nAt the end of the incubation, 5 μL aliquots of the samples were diluted with 15 μL of 0.2% TFA prior to micro C4 ZipTipping® directly onto the MALDI target plate using sinapinic acid as the desorption matrix (10 mg/mL in 0.2% TFA:Acetonitrile 50:50). Samples were immediately analyzed on an ABSciex 4800 MALDI TOF-TOF mass spectrometer.\nFor intact protein mass measurement, the mass spectrometer was set in linear mode using a pulsed extraction setting of 81,500. Bovine serum albumin (BSA; Sigma, St Louis, Mo.) was used as the standard to calibrate the instrument. These values correspond to the percentage of total protein covalently modified by the tested compound after one hour incubation."}, "BTK": {"target": "T2, BTK (Homo sapiens, UniProt Q06187)", "T2 construct": "endogenous in cells; host or cells: Ramos cells", "T2 sequence (Q06187 whole entry)": "as above", "test": "Btk target site occupancy, covalent probe ELISA in Ramos cells", "type": "cell-based", "settings": "1 hour at 37° C., 0.09-200 nM, read-out: Ramos cell EC50 (nM), BTK occupancy", "description": "A covalent probe shown below was used in an ELISA assay to determine occupancy of the target BTK by certain compounds according to the invention.\nRamos cells were incubated in serum-free RPMI medium for 1 hour (˜2×10^6 cells/mL in 2 mL). Test compounds were diluted from a 10 mM DMSO stock solution, to achieve a final concentration of 0.09, 0.27, 0.82, 2.47, 7.42, 22.2, 66, and 200 nM. Cells were then incubated for 1 hour at 37° C. Following incubation, cells were spun at 1100 RPM for 5 minutes then washed in 200 μL of chilled PBS. Following the wash, cells were spun at 1100 RPM for 5 minutes. The supernatant was aspirated and then cells were resuspended in lysis buffer containing protease and phosphatase inhibitors. This was followed by centrifugation for 15 minutes at 14000 RPM at 4° C. Supernatant was transferred to a fresh tube. Lysates were stored at −80° C. until assayed.\nSamples were thawed and mixed well by vortexing for 5 seconds. 60 μL of each sample was added into the 96-well mixing plate followed by addition of 60 μL of covalent probe solution (2 μM probe in PBS+0.05% Tween-20+1% BSA; 1:2 sample dilution) to each well containing sample. An adhesive cover was then placed on the plate followed by mixing of the plate on a shaker for 1 hour at room temperature. The streptavidin plate was pre-washed 3 times with PBS+0.05% Tween-20. 50 μL of the standards, QCs, and samples were then transferred from the mixing plate to the streptavidin plate. The plate was covered with an adhesive cover and mixed while shaking for 1 hour at room temperature. A 1:1000 dilution of the primary anti-Btk antibody (catalog #611116, Becton Dickinson; Franklin Lakes, N.J.) in PBS+0.05% Tween-20+0.5% BSA was prepared. The streptavidin plate was washed 3 times with PBS+0.05% Tween-20 and 50 μL/well of diluted anti-Btk antibody was then pipetted into the streptavidin plate. The plate was covered and incubated for 1 hour at room temperature. A 1:5000 dilution of secondary antibody (goat anti-mouse-HRP, catalog #62-6520, Zymed-Invitrogen; Carlsbad, Calif.) in PBS+0.05% Tween-20+0.5% BSA was prepared. The streptavidin plate was again washed 3 times with PBS+0.05% Tween-20 and 50 μL/well of diluted secondary antibody was pipetted into the streptavidin plate. The plate was covered and incubated for 1 hour at room temperature. The streptavidin plate was again washed 3 times with PBS+0.05% Tween-20 followed by the addition of 100 μL of TMB solution to each well. The plate was then read on a Synergy^2 plate reader at OD 650 nm until the OD maximum reached 1.0. This was followed by the addition of 100 μL of the Stop Solution. The plate was then read at OD 450 nm. A human recombinant Btk protein standard curve (11.7-3000 pg/μL) was plotted using a 4 parameter curve fit in GenS software (Version 1.05.11; Biotek; Winooski, Vt.;). The sample ODs were read against the standard curve to calculate free protein amounts.\nData were generated as ODs on an ELISA plate reader (Synergy^2, BioTek; Winooski, Vt.). Uninhibited Btk captured by the biotinylated covalent probe was quantitated and normalized to untreated control samples. Results were expressed as % Btk occupancy. EC50 values were generated using a 4 parameter curve fit analysis in GraphPad Prism version 5.0."}, "[3]": {"tested_on": "TNF-α, IL-1β, and other inflammatory cytokines", "settings": "LPS-stimulated hPBMC and human whole blood; cited from earlier work"}}, "data": [{"smiles": "C=CC(=O)Nc1cccc(Nc2nc(N(C)c3ccc(OCCO)cc3)ncc2F)c1", "note": "[Compound I-25, N-(3-((5-fluoro-2-((4-(2-hydroxyethoxy)phenyl)(methyl)amino)pyrimidin-4-yl)amino)phenyl)acrylamide]", "values": [{"measurement": "IC50", "setting": "[1]", "value": "101 to 500", "unit": "nM"}]}, {"smiles": "O=C(Nc1cccc(Nc2nc(Nc3ccc(OCCO)cc3)ncc2F)c1)C(O)CO", "note": "(centres unmarked) [Compound I-5, N-(3-((5-fluoro-2-((4-(2-hydroxyethoxy)phenyl)amino)pyrimidin-4-yl)amino)phenyl)-2,3-dihydroxypropanamide]", "values": [{"measurement": "IC50", "setting": "[1]", "value": "101 to 500", "unit": "nM"}, {"measurement": "MS % modification", "setting": "[2]", "value": "C (<30% modification)"}]}, {"smiles": "COCCOc1ccc(Nc2ncc(F)c(Nc3cccc(N4OCCC4=O)c3)n2)cc1", "note": "[Compound I-27]", "values": [{"measurement": "IC50", "setting": "[1]", "value": "101 to 500", "unit": "nM"}]}, {"smiles": "COCCOc1ccc(Nc2ncc(F)c(Nc3cccc(NC(=O)C4CO4)c3)n2)cc1", "note": "(centres unmarked) [Compound I-19, N-(3-((5-fluoro-2-((4-(2-methoxyethoxy)phenyl)amino)pyrimidin-4-yl)amino)phenyl)oxirane-2-carboxamide]", "values": [{"measurement": "EC50", "setting": "BTK", "value": "< 10", "unit": "nM"}, {"measurement": "IC50", "setting": "[1]", "value": "≤ 10", "unit": "nM"}, {"measurement": "MS % modification", "setting": "[2]", "value": "A (>70% modification)"}]}, {"smiles": "Cc1nc2cccc(N)c2c(=O)n1C1CCC(=O)NC1=O", "note": "(centres unmarked) [compound of formula D, 3-(5-amino-2-methyl-4-oxo-4H-quinazolin-3-yl)-piperidine-2,6-dione]", "values": [{"measurement": "inhibition of TNF-α, IL-1β, and other inflammatory cytokines", "setting": "[3]", "value": "markedly inhibits"}]}, {"smiles": "C=CC(=O)Nc1cccc(Nc2nc(Nc3ccc(OCCOC)cc3)ncc2F)c1O", "note": "[Compound I-18, N-(3-((5-fluoro-2-((4-(2-methoxyethoxy)phenyl)amino)pyrimidin-4-yl)amino)-2-hydroxyphenyl)acrylamide]", "values": [{"measurement": "EC50", "setting": "BTK", "value": "< 50", "unit": "nM"}, {"measurement": "IC50", "setting": "[1]", "value": "≤ 10", "unit": "nM"}]}, {"smiles": "C=CC(=O)Nc1cccc(Nc2nc(Nc3ccc(OCCOC)c(O)c3)ncc2F)c1", "note": "[Compound I-13, N-(3-((5-fluoro-2-((3-hydroxy-4-(2-methoxyethoxy)phenyl)amino)pyrimidin-4-yl)amino)phenyl)acrylamide]", "values": [{"measurement": "EC50", "setting": "BTK", "value": "< 50", "unit": "nM"}, {"measurement": "IC50", "setting": "[1]", "value": "≤ 10", "unit": "nM"}]}, {"smiles": "COCCOc1ccc(Nc2ncc(F)c(Nc3cccc(NC(=O)CCO)c3)n2)cc1", "note": "[Compound I-26, N-(3-((5-fluoro-2-((4-(2-methoxyethoxy)phenyl)amino)pyrimidin-4-yl)amino)phenyl)-3-hydroxypropanamide]", "values": [{"measurement": "IC50", "setting": "[1]", "value": "> 501", "unit": "nM"}]}, {"smiles": "C=CC(=O)Nc1cccc(N(C)c2nc(Nc3ccc(OCCO)cc3)ncc2F)c1", "note": "[Compound I-24]", "values": [{"measurement": "EC50", "setting": "BTK", "value": "< 10", "unit": "nM"}, {"measurement": "IC50", "setting": "[1]", "value": "≤ 10", "unit": "nM"}]}, {"smiles": "C=CC(=O)Nc1cc(Nc2nc(Nc3ccc(OCCOC)cc3)ncc2F)ccc1O", "note": "[Compound I-17, N-(5-((5-fluoro-2-((4-(2-methoxyethoxy)phenyl)amino)pyrimidin-4-yl)amino)-2-hydroxyphenyl)acrylamide]", "values": [{"measurement": "IC50", "setting": "[1]", "value": "≤ 10", "unit": "nM"}]}, {"smiles": "C=CC(=O)N(C)c1cccc(Nc2nc(Nc3ccc(OCCO)cc3)ncc2F)c1", "note": "[Compound I-23, N-(3-((5-fluoro-2-((4-(2-hydroxyethoxy)phenyl)amino)pyrimidin-4-yl)amino)phenyl)-N-methylacrylamide]", "values": [{"measurement": "EC50", "setting": "BTK", "value": "< 100", "unit": "nM"}, {"measurement": "IC50", "setting": "[1]", "value": "≤ 10", "unit": "nM"}]}, {"smiles": "O=C(Nc1cccc(Nc2nc(Nc3ccc(O)cc3)ncc2F)c1)C(O)CO", "note": "(centres unmarked) [Compound I-6, N-(3-((5-fluoro-2-((4-hydroxyphenyl)amino)pyrimidin-4-yl)amino)phenyl)-2,3-dihydroxypropanamide]", "values": [{"measurement": "IC50", "setting": "[1]", "value": "101 to 500", "unit": "nM"}, {"measurement": "MS % modification", "setting": "[2]", "value": "C (<30% modification)"}]}, {"smiles": "C=CC(=O)Nc1cccc(Nc2nc(Nc3ccc(OCCOC)cc3O)ncc2F)c1", "note": "[Compound I-14, N-(3-((5-fluoro-2-((2-hydroxy-4-(2-methoxyethoxy)phenyl)amino)pyrimidin-4-yl)amino)phenyl)acrylamide]", "values": [{"measurement": "IC50", "setting": "[1]", "value": "≤ 10", "unit": "nM"}]}, {"smiles": "O=C(Nc1cccc(Nc2nc(Nc3ccc(OCCO)cc3)ncc2F)c1)C1CO1", "note": "(centres unmarked) [Compound I-22, N-(3-((5-fluoro-2-((4-(2-hydroxyethoxy)phenyl)amino)pyrimidin-4-yl)amino)phenyl)oxirane-2-carboxamide]", "values": [{"measurement": "EC50", "setting": "BTK", "value": "< 50", "unit": "nM"}, {"measurement": "IC50", "setting": "[1]", "value": "≤ 10", "unit": "nM"}]}, {"smiles": "C=CC(=O)Nc1cccc(Nc2nc(Nc3ccc(OCC(=O)O)cc3)ncc2F)c1", "note": "[Compound I-2, 2-(4-((4-((3-acrylamidophenyl)amino)-5-fluoropyrimidin-2-yl)amino)phenoxy)acetic acid]", "values": [{"measurement": "EC50", "setting": "BTK", "value": "> 200", "unit": "nM"}, {"measurement": "IC50", "setting": "[1]", "value": "≤ 10", "unit": "nM"}]}, {"smiles": "C=CC(=O)Nc1cc(O)cc(Nc2nc(Nc3ccc(OCCOC)cc3)ncc2F)c1", "note": "[Compound I-16, N-(3-((5-fluoro-2-((4-(2-methoxyethoxy)phenyl)amino)pyrimidin-4-yl)amino)-5-hydroxyphenyl)acrylamide]", "values": [{"measurement": "IC50", "setting": "[1]", "value": "≤ 10", "unit": "nM"}]}, {"smiles": "COCCOc1ccc(Nc2ncc(F)c(Nc3cccc(NC(=O)C(O)CO)c3)n2)cc1", "note": "(centres unmarked) [Compound I-4, N-(3-((5-fluoro-2-((4-(2-methoxyethoxy)phenyl)amino)pyrimidin-4-yl)amino)phenyl)-2,3-dihydroxypropanamide]", "values": [{"measurement": "IC50", "setting": "[1]", "value": "101 to 500", "unit": "nM"}, {"measurement": "MS % modification", "setting": "[2]", "value": "C (<30% modification)"}]}, {"smiles": "C=CC(=O)Nc1ccc(O)c(Nc2nc(Nc3ccc(OCCOC)cc3)ncc2F)c1", "note": "[Compound I-15, N-(3-((5-fluoro-2-((4-(2-methoxyethoxy)phenyl)amino)pyrimidin-4-yl)amino)-4-hydroxyphenyl)acrylamide]", "values": [{"measurement": "IC50", "setting": "[1]", "value": "11 to 100", "unit": "nM"}]}]}
